Laboratory results published in patent US20160361443A1, “Ultrasound Molecular Imaging With Targeted Biocompatible Microbubbles” (University of Pittsburgh - Of the Commonwealth System of …, priority 2015, published 2016).
Values joined by “and” are separate entries in the source; they are usually repeats but may differ in a detail not shown here. Identical values can stand only once. “Also recorded” adds a separate entry of the source. Where no end group is shown, it is not given here. Side-chain parts run from the residue outwards. microbubble albumin shell = not defined here

B1: MBESEL: polymer/albumin double-shell microbubble bearing biotinylated peptide AF10166 (E-selectin targeting peptide) via biotin-streptavidin bridging (peptide)
peptide: DITWDQLWDLMK
modifications: also: biotinylated, site not given here, held on microbubble shell by biotin-streptavidin bridging
notes: The peptide stood in the assays as many copies on a gas-filled microbubble (outer shell crosslinked human albumin, inner layer PDLLA); streptavidin and albumin shell are not; also called E-selectin targeted microbubble; MBEsel (biotin-streptavidin linker)
B2: MB Esel(MAL): polymer/albumin double-shell microbubble bearing the E-selectin targeting peptide with one N-terminal cysteine, joined by a thioether bond … (peptide)
peptide: C([BM(PEG)3-microbubble albumin shell])DITWDQLWDLMK
modifications: reading uncertain; also: thioether-conjugated to polymer/albumin microbubble
notes: also called microbubble Esel(MAL); E-sel target MB (Mal)

Key:
[1] = tested on: Rat heart microvascular ECs; test: Parallel plate perfusion chamber, MB adhesion to cultured endothelial cells; assay type: cell-based; settings: for MB adhesion to inflamed (activated) ECs: IL-1b-activated ECs; for MB adhesion to inflamed (activated) ECs / MB adhesion to noninflamed (normal) ECs: 5×10^6 MB in 1 mL, wall shear rate 200 s-1; for MB adhesion to activated versus normal ECs (in words): in vitro flow chamber
Procedure: (§1) Targeted biodegradable polymer MB (3.4±1.3μm) were prepared bearing a 12-mer synthetic peptide on the surface with specific E-selectin affinity (MBESEL). See, FIG. 7. Control MB had scrambled peptide (MBCTL) or non-specific IgG (MBIgG). MB adhesion to cultured rat endothelial cells (EC) was assessed in a parallel plate flow system (n=3/condition). Intravital microscopy of rat cremaster microcirculation was performed after i.v. injection of each MB type under basal or activated conditions (scrotal TNF 5μg) (n=3 rats/condition). To determine if binding events could be imaged, 6 rats had 15 min coronary artery occlusion. After 4 hrs reflow, each rat received separate i.v. boluses of MBESEL, MBCTL, and MBIgG. Non-linear echo imaging was performed 3 and 3.5 min later. Videointensity (VI) differences between the 2 time points was attributed to target-specific signal.
Cultured rat heart microvessel endothelial cells were placed on glass cover slips. The cells were then stimulated with IL-1β (2 ng/ml) for 4 hrs and then perfused with 1 mL microbubbles (5×10^6 /mL)-MBE-SEL or MBCTL. These microbubbles were then subjected to a wall shear rate of 200 sec-1. See, FIG. 8. 20 random fields (n=3) were assessed. […] FIGS. 9A and 9B.
A parallel plate perfusion chamber was used to quantify MB adhesion to cultured endothelial cells (ECs).12 Rat heart microvascular ECs (VEC Technologies, Rensselaer, N.Y.) were grown to confluence on 25 mm 3 75 mm glass coverslips. Cells were incubated for 5 hours with 5 ng/mL interleukin-1b (Sigma-Aldrich, St. Louis, Mo.) to cause activation. Coverslips with normal or IL-1b-activated ECs ([…]; 3/condition) were mounted in the chamber and perfused with one of the three MB species (5×10^6 MB in 1 mL culture medium) at a wall shear rate of 200 s-1, followed by an additional 3 mL of plain culture medium. The chamber was then mounted on a microscope (Nikon TE200) and 20 random bright-field images (3 100) of the ECs were captured (ORCA285, Hamamatsu, Bridgewater, N.J.). The mean number of attached MBs/ECs was counted offline.

[2] = tested on: rat cremaster muscle microcirculation; test: Intravital microscopy of MB adhesion in vivo; settings: for MB adhesion to inflamed microcirculation: TNF-a 5 μg intrascrotal; for MB adhesion to normal or inflamed microcirculation (in words): basal or TNF-a activated
Procedure: as §1
An intravital microscopy of rat cremaster muscle microcirculation was performed after intravenous injection of 1×10^8 MBE-SEL or MBCTL (n=3 per condition). Non-inflamed: 4 hrs after intrascrotal injection of saline. Inflamed : 4 hrs after intrascrotal injection of TNF-α (5 μg). Real-time images were captured and microbubble adhesion was quantified in venules at 5 minutes after microbubble injection in 20 random fields. See, FIGS. 10A and 10B.
Microscopy of the rat cremaster muscle microcirculation was used for real-time visualization of MB adhesion in vivo. Sprague Dawley rats (100-120 g) received intrascrotal injection of either tumor necrosis factor a (n=9, 5 μg, Thermo Scientific, Waltham, Mass.) or 1 mL saline (n=9). Four hours later, the cremaster muscle was exteriorized and mounted on an inverted fluorescent microscope (Nikon TE200). Each rat received one intravenous injection (1×10^8 MB) of either MBESEL or control MBs (MBCTL or MBIgG) in […], followed by a […] ([…], 3 rats per MB type/inflammatory status combination, total 6 groups). Five minutes after injection, bright-field microscopic imaging of 20 random fields was performed to identify microvessels, and epi-illumination fluorescent imaging was performed to identify MBs, followed by pentobarbital overdose. Images were analyzed offline for MB adhesion per field of view, defined as MB immobility lasting≧30 seconds.
(§2) All protocols were approved by the Institutional Animal Care and Use Committee at the University of Pittsburgh. […] (Sprague Dawley, Harlan Laboratories, Indianapolis, Ind.) were anesthetized with intraperitoneal sodium pentobarbital (50 mg/kg) and maintained with 1.5 to 2.0% inhaled isoflurane. Body temperature was maintained at 37° C. with a heating pad. The internal jugular vein was cannulated with a 20-gauge catheter for MB injection.

E-selectin = biological target: T1, E-selectin (Rattus norvegicus, UniProt P98105); test: Ultrasound molecular imaging in rat myocardial ischemia-reperfusion model; assay type: in vivo; settings: for Contrast enhancement of postischemic myocardium (in words): 4 h after reperfusion, 3 min after MB injection
T1 construct: Immunofluorescent staining in all rats consistently confirmed microvascular E-selectin and ICAM-1 expression in postischemic myocardium; from tissue
T1 sequence (P98105 22-549): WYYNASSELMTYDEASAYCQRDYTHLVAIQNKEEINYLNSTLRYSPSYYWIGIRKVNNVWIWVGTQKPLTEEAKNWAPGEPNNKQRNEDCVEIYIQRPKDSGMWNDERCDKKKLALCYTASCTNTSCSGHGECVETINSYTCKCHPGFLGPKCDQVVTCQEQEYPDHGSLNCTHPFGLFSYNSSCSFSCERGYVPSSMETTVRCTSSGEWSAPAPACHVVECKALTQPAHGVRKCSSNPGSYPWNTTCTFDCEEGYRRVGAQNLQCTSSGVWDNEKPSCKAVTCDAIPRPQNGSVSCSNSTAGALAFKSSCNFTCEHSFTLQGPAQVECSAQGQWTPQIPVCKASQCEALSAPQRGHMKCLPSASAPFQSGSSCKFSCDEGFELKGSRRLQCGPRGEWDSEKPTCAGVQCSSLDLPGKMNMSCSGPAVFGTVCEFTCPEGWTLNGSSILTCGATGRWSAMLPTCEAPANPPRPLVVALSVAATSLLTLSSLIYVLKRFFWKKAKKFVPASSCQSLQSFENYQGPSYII
Procedure: as §1
An open chest rat model of myocardial ischemia-reperfusion (n=6) was performed where the left anterior descending coronary artery was occluded for 15 minutes then reperfused. See, FIG. 11. At 4 hrs of reflow, the rat received separate i.v. injections of MBE-SEL or MBCTL (2.5×10^7 MBs). Triggered ultrasound imaging (8 MHz, MI 0.6, Sequoia CPS, Siemens) was performed 3 min after injection, followed by 5 destruction frames (MI 1.9) and a second imaging frame (MI 0.6) at 3.5 minutes. The videointensity difference between the two imaging frames was attributed to microbubble adhesion. See, FIG. 12.
as §2
A previously described rat model of acute myocardial ischemia and reperfusion was used for UMI of E-selectin overexpression as a marker of ischemic memory.^3 Anesthetized rats (n=6, 150-200 g) were intubated and mechanically ventilated. A lateral thoracotomy was performed, and the left anterior descending (LAD) coronary artery was occluded for 15 minutes and then reperfused. After 4 hours of reflow, each rat received separate intravenous injections of MBESEL, MBCTL, and MBIgG in random order (2.5×10^7 MBs in […] followed by a […]), and ultrasound imaging was performed as described below.
Thereafter, high mechanical index (MI) burst pulses were sent to ensure that all adhered and freely circulating MBs were destroyed prior to any subsequent injection. Typically, subsequent injections were given 5 minutes after MBs could no longer be detected in the left ventricular cavity on ultrasound imaging. The MB dosage was empirically chosen based on pilot studies assessing myocardial enhancement from various doses. At the end of the experiment, the LAD coronary artery was reoccluded, nontargeted myocardial contrast echocardiography (MCE) using plain lipid MBs was performed to delineate the risk area, and the rat was euthanized using pentobarbital overdose. Open-chest MCE in the short-axis view was performed using a contrast-specific imaging mode combining phase and amplitude modulation of the transmit signal (Cadence Contrast Pulse Sequencing, Sequoia 512, Siemens Ultrasound, Mountain View, Calif.) from a linear array transducer (15 L8) operating at 8 MHz. Probe position, dynamic range, gain settings, and focus were initially optimized and maintained constant. Ultrasound detection of bound MBs was performed using a previously described approach.^12,13 After 3 minutes to allow MB retention and washout of unbound MBs, end-systolic imaging was performed at an MI of 0.6, followed by an ultrasound burst pulse at MI of 1.9 to destroy the MBs and then end-systolic imaging 30 seconds later at MI 0.6. […]

[3] = biological target: T2, human E-selectin on TNFα-activated HUVEC cells (human, UniProt P16581 22-610); test: in vitro flow chamber, TNFα-activated HUVEC
T2 construct: whole, on cells
T2 sequence (looked up): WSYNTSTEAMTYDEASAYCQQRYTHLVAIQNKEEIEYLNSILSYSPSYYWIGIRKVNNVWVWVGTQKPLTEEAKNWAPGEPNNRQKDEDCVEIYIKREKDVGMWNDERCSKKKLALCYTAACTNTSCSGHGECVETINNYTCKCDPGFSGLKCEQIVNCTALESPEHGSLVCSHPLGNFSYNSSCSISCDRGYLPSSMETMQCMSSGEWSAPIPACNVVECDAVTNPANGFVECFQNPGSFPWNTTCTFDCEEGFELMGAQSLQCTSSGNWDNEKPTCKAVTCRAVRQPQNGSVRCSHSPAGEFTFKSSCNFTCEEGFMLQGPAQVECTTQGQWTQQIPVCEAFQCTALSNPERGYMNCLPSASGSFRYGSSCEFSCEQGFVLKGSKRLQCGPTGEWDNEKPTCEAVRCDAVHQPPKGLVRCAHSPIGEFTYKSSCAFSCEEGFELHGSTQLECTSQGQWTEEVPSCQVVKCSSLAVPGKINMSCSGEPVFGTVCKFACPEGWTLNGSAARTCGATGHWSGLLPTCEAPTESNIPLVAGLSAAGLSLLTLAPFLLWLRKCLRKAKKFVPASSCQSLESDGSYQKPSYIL

[4] = 4 h, 1×10^8 MB i.v., 5 min after injection
[5] = 15 min LAD occlusion, 4 h reflow, 2.5×10^7 MBs i.v., 3 min after injection

Row | Molecule | MB adhesion to inflamed (activated) ECs [1] | MB adhesion to activated versus normal ECs (in words) [1] | MB adhesion to activated versus normal ECs (in words) ([1]; listed as MBcontrl) | MB adhesion to noninflamed (normal) ECs [1] | MB adhesion to inflamed microcirculation [2, 4] [MBs/field] | MB adhesion to normal or inflamed microcirculation (in words) [2] | Background-subtracted videointensity, postischemic (LAD) bed (E-selectin; [5]) | Contrast enhancement of postischemic myocardium (in words) (E-selectin) | MB adhesion to activated versus normal ECs (in words) ([1]; listed as MBE-SEL) | MB adhesion to activated versus normal ECs (in words) ([1]; listed as MBEsel) | MB adhesion to inflamed microcirculation (Example II) ([2]; activated conditions (scrotal TNF 5μg)) [MB/field] | MB adhesion to non-inflamed microcirculation (Example II) ([2]; basal conditions) [MB/field] | MB adhesion to noninflamed microcirculation ([2]; saline intrascrotal, 4 h, 1×10^8 MB i.v., 5 min after injection) [MBs/field] | Background-subtracted videointensity, nonischemic bed (E-selectin; [5]) | Contrast enhancement of postischemic myocardium (in words) (E-selectin; listed as MBEsel) | Linear relationship, size of risk area vs size of region of persistent contrast enhancement (r) (E-selectin; y=0.98x-0.01) | binding result [3]
1 | MBCTL: Control microbubbles linked to the 12-mer randomized AF10166 sequence (H2NWKLDTLDMIWQD-COOH) via biotin-streptavidin (also: linked to microbubbles via biotin-streptavidin, site not given here) [reference compound] | 4.1±0.6 MB/EC and 5±2 MB/EC | no difference | minimal adhesion | 4±1 MB/EC | 1.5±0.3 | minimal attachment; also recorded: minimal adhesion | 4.0±1.0 dB and 4±1 dB | not seen |  |  |  |  |  |  |  |  | 
2 | MBESEL: Double-layer albumin/PDLLA microbubbles conjugated with E-selectin targeting peptide AF10166 via biotin-streptavidin bridging chemistry (DITWDQLWDLMK; also: biotinylated, site not given here, on microbubble via biotin-streptavidin) | 17.4±1.8 MB/EC and 17±2 MB/EC |  |  | 5.9±3.4 MB/EC and 5±3 MB/EC | 4.8±1.2 | adhesion to inflamed circulation (arrows) but not to control, noninflamed circulation | 11.6±2.7 dB and 12±3 dB | persistent contrast enhancement of the previously ischemic LAD coronary artery territory | superior binding | greater adhesion | 96±23 | 34±8 | 1.7±0.4 | 3.6±0.8 dB and 4±1 dB | higher | 0.92 | 
3 | B1 |  |  |  |  |  |  |  |  |  |  |  |  |  |  |  |  | binds
4 | B2 |  |  |  |  |  |  |  |  |  |  |  |  |  |  |  |  | binds
